Experimental data as given in PMC6154692, “Determination of Vancomycin in Human Serum by Cyclodextrin-Micellar Electrokinetic Capillary Chromatography (CD-MEKC) and Application for PDAP Patients” (Molecules : A Journal of Synthetic Chemistry and Natural …, 2017).

Experiments:
PDAP patients = test: Clinical safety observation in PDAP patients treated with i.p. vancomycin; type: in vivo, human
Protocol: Patients were treated with intraperitoneal (i.p.) vancomycin (Vancocin, Eli Lilly) for 1.0 g every 5–7 days. Nine PDAP patients’ samples were collected, and the trough concentrations of VCM were measured. […] Side effects were not observed in patients who were treated with VCM. The 15–20 µg/mL range was determined in three samples (17.06 µg/mL, 15.39 µg/mL, and 19.25 µg/mL), which was reported as the effective treatment window. […] In view of patients’ residual renal function and peritoneal permeability, levels <15 µg/mL were found in four samples (12.88 µg/mL, 5.48 µg/mL, 8.90 µg/mL, and 9.30 µg/mL). ISPD recommends that re-dosing is appropriate once serum vancomycin levels go below 15 µg/mL.

[1] = Stability of VCM in spiked human serum QC samples (bench-top, 30-day, autosampler, freeze-thaw), read by CD-MEKC; type: in vitro ADME; details: for Accuracy (%), autosampler stability / Accuracy (%), freeze–thaw stability / Accuracy (%), bench-top stability / Accuracy (%), 30-day stability: found vs initial concentration, CD-MEKC UV; for Accuracy (%), autosampler stability: 25 °C for 8 h; for Accuracy (%), autosampler stability / Accuracy (%), freeze–thaw stability / Accuracy (%), bench-top stability / Accuracy (%), 30-day stability / Measured Concentration (Mean ± SD), bench-top stability / Measured Concentration (Mean ± SD), autosampler stability / Measured Concentration (Mean ± SD), freeze–thaw stability / Measured Concentration (Mean ± SD), 30-day stability: n = 5; for Accuracy (%), freeze–thaw stability: three freeze–thaw cycles; for Accuracy (%), bench-top stability: 25 °C for 2 h; for Accuracy (%), 30-day stability: −80 °C, 30 days; for Measured Concentration (Mean ± SD), bench-top stability: ambient temperature (25 °C) for 2 h; for Measured Concentration (Mean ± SD), bench-top stability / Measured Concentration (Mean ± SD), autosampler stability / Measured Concentration (Mean ± SD), freeze–thaw stability / Measured Concentration (Mean ± SD), 30-day stability: CD-MEKC UV 210 nm; for Measured Concentration (Mean ± SD), autosampler stability: spiked human serum sample, kept at ambient temperature (25 °C) for 8 h; for Measured Concentration (Mean ± SD), freeze–thaw stability: after three freeze–thaw cycles; for Measured Concentration (Mean ± SD), 30-day stability: stored at −80 °C for 30 days
Protocol: Analyte stability determinations comprised short-term temperature stability (bench-top stability), long-term stability (30-day stability), autosampler stability, and freeze-thaw cycles stability, which were evaluated by analyzing three QC levels in VCM. The peak areas obtained from both stability tests were compared with the peak areas obtained with freshly prepared samples. The mean values and standard deviations of the ratios between the concentrations found and initial concentration were used for stability evaluation.
The BGE used in this study was 25 mM borate buffer with 50 mM SDS and 2% sulfobutyl-β-CD (pH 9.50). It was prepared by weighting appropriate amounts of Na2B4O7∙10H2O, SDS, and sulfobutyl-β-CD, followed by thoroughly mixing and dissolving with 100 mL deionized water. NaOH (1 mol/L) was used for adjusting pH to 9.50. BGE solutions were prepared freshly every day and filtered through a 0.45 μm hydrophilic cellulose membrane filter prior to use. The separation voltage was 15 kV (+) → (−). Hydrodynamic injection mode was performed at a pressure of 0.5 psi for 5 s. The capillary was conditioned by rinsing with 0.1 mol/L NaOH (1 min) followed by BGE (5 min) sequentially between the runs in order to maintain an active and reproducible inner surface.
Standard stock solution (1 mg/mL) of VCM and the IS were prepared in methanol. Working standard solutions (ranging from 10 to 500 µg/mL) were prepared daily by diluting the stock solution to the desired concentration with deionized water. The IS solution was prepared by deionized water at the concentration of 200 µg/mL. The standard solutions were stored in brown glass vials to protect from light at 4 °C. Calibration samples were obtained by diluting standard working solutions (10 μL) with drug-free human control serum (90 μL), to span a calibration standard range of 1–100 µg/mL for VCM. QC samples (3, 15, 80 µg/mL) were independently prepared by spiking an appropriate amount of the working standard solution in drug-free human control serum.
A simple and rapid sample preparation was applied by protein precipitation in SiroccoTM 96-well filtration plate (Waters Corp., Milford, MA, USA). Standard curve samples (100 μL), QC samples, and subject serum samples were added individually into 96-well plates by an eight-channel hand-held pipettor. To precipitate the serum protein, 200 μL ACN (acetonitrile) solution c ontaining 100 μg/mL of the IS solution was added to each sample (standards, QCs, and samples). Sirocco plates were capped and mixed by vortexing for 3 min and held for 15 min, subsequently placed on a vacuum manifold, and filtered to remove any precipitated material. The filtrate was collected into another 96-well plate and was evaporated to dryness with a nitrogen flow at 37 °C (TURBOVAP 96, Biotage, Uppsala, Sweden). All dry residues were reconstituted by the addition of 50 μL water. Finally, the plates were vortex mixed for 1 min, followed by centrifugation for 10 min at 12,000 rpm at 4 °C using a 5804 R Eppendorf refrigerated centrifuge (Hamburg, Germany). The supernatant was transferred to the autosampler for injection onto the CE.

[2] = design: method as in doi:10.1016/0378-5173(93)90252-B; details: cited from earlier work
Description: The pH value of BGE is an important factor in CE. VCM is a glycopeptide antibiotic with quite a complex structure. It contains six functional groups which participate in acid-base equilibria. Namely, its net charge in solution strongly depends on the solution pH. […] Protonations of amino (primary and secondary amino) and three phenolate groups take place between pH 13 and 5 in multiply overlapping stages. […] Owing to t ...

[3] = intraperitoneal, in the presence of peritonitis; ref guideline of ISPD; cited from earlier work
[4] = spiked human serum, HQC 80 µg/mL
[5] = spiked human serum, LQC 3 µg/mL
[6] = spiked human serum, MQC 15 µg/mL

Q: With `CN[C@H](CC(C)C)C(=O)N[C@H]1C(=O)N[C@@H](CC(N)=O)C(=O)N[C@H]2C(=O)N[C@H]3C(=O)N[C@H](C(=O)N[C@H](C(=O)O)c4cc(O)cc(O)c4-c4cc3ccc4O)[C@H](O)c3ccc(c(Cl)c3)Oc3cc2cc(c3O[C@@H]2O[C@H](CO)[C@@H](O)[C@H](O)[C@H]2O[C@H]2C[C@](C)(N)[C@H](O)[C@H](C)O2)Oc2ccc(cc2Cl)[C@H]1O` [VCM, vancomycin] as the compound, how does the Side effects (PDAP patients; PDAP patients treated with VCM, i.p. 1.0 g every 5–7 days) read?
A: not observed

Q: What about the “Changes in renal function before and after treatment” value (PDAP patients; nine PDAP patients, i.p. vancomycin 1.0 g every 5–7 days) of the same compound?
A: No significant changes

Q: What about the “Stability in spiked serum samples (in words)” value ([1]; bench-top, 30-day, autosampler and freeze-thaw conditions, three QC levels) of the same compound?
A: stable

Q: And the “Accuracy (%), autosampler stability” value ([1]; HQC 80 µg/mL)?
A: 105.70%

Q: What about the “Accuracy (%), freeze–thaw stability” value ([1]; HQC 80 µg/mL) of the same compound?
A: 108.80%

Q: What about the “Accuracy (%), autosampler stability” value ([1]; LQC 3 µg/mL) of the same compound?
A: 103.80%

Q: And the “Accuracy (%), freeze–thaw stability” value ([1]; LQC 3 µg/mL)?
A: 110.40%

Q: And the “Accuracy (%), autosampler stability” value ([1]; MQC 15 µg/mL)?
A: 107.10%

Q: And the “Accuracy (%), freeze–thaw stability” value ([1]; MQC 15 µg/mL)?
A: 104.60%

Q: And the “Accuracy (%), bench-top stability” value [1, 4]?
A: 108.40%

Q: And the “Accuracy (%), 30-day stability” value [1, 4]?
A: 106.60%

Q: And the “Accuracy (%), bench-top stability” value [1, 5]?
A: 107.80%

Q: What about the “Accuracy (%), 30-day stability” value [1, 5] of the same compound?
A: 104.70%

Q: And the “Accuracy (%), bench-top stability” value [1, 6]?
A: 102.70%

Q: And the “Accuracy (%), 30-day stability” value [1, 6]?
A: 104.90%

Q: And the “Measured Concentration (Mean ± SD), bench-top stability” value ([1]; spiked human serum (table title: plasma), LQC 3 µg/mL)?
A: 3.271 ± 0.02 µg/mL

Q: And the “Measured Concentration (Mean ± SD), autosampler stability” value ([1]; HQC 80 µg/mL)?
A: 85.57 ± 0.29 µg/mL

Q: What about the “Measured Concentration (Mean ± SD), autosampler stability” value ([1]; LQC 3 µg/mL) of the same compound?
A: 3.15 ± 0.01 µg/mL

Q: And the “Measured Concentration (Mean ± SD), autosampler stability” value ([1]; MQC 15 µg/mL)?
A: 16.26 ± 0.09 µg/mL

Q: What about the “Measured Concentration (Mean ± SD), freeze–thaw stability” value [1, 4] of the same compound?
A: 88.01 ± 0.23 µg/mL

Q: What about the “Measured Concentration (Mean ± SD), bench-top stability” value [1, 4] of the same compound?
A: 87.69 ± 0.38 µg/mL

Q: What about the “Measured Concentration (Mean ± SD), 30-day stability” value [1, 4] of the same compound?
A: 86.24 ± 0.52 µg/mL

Q: What about the “Measured Concentration (Mean ± SD), freeze–thaw stability” value [1, 5] of the same compound?
A: 3.35 ± 0.02 µg/mL

Q: What about the “Measured Concentration (Mean ± SD), 30-day stability” value [1, 5] of the same compound?
A: 3.18 ± 0.01 µg/mL

Q: What about the “Measured Concentration (Mean ± SD), freeze–thaw stability” value [1, 6] of the same compound?
A: 15.88 ± 0.07 µg/mL

Q: And the “Measured Concentration (Mean ± SD), bench-top stability” value [1, 6]?
A: 15.59 ± 0.09 µg/mL

Q: What about the “Measured Concentration (Mean ± SD), 30-day stability” value [1, 6] of the same compound?
A: 15.92 ± 0.08 µg/mL

Q: What about the pI value [2] of the same compound?
A: about 7.10

Q: And the “Fraction of i.p. vancomycin absorbed” value [3]?
A: approximately 90%
